Reference: patent US20210238162A1, “CHEMICAL COMPOUNDS” (GlaxoSmithKline Intellectual Property Development Limited, priority 2015, published 2021)
Where a name gives a salt, the structure may show the parent alone. Read-outs that look alike come from different tables or passages of the source.

Biological target: T1, haematopoietic prostaglandin D synthase (H-PGDS) (Homo sapiens, UniProt O60760)
T1 construct: Full length human H-PGDS cDNA (Invitrogen Ultimate ORF IOH13026) was amplified by PCR; made in house; host or cells: E. coli BL21 (DE3*), vector pET22b+
T1 sequence (O60760 whole entry): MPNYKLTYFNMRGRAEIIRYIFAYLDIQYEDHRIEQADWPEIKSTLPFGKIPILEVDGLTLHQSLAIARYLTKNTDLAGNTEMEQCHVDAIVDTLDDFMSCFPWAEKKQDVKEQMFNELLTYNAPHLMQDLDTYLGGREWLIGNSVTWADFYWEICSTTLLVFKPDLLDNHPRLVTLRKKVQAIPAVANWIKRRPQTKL
Assay: H-PGDS RapidFire High Throughput Mass Spectrometry Assay
Assay type: biochemical
Description: The H-PGDS RapidFire™ mass spectrometric assay monitors conversion of prostaglandin H2 (PGH2) to prostaglandin D2 (PGD2) by haematopoietic prostaglandin D synthase (H-PGDS). In the assay format described here, the substrate (PGH2) is formed in situ by the action of cyclooxygenase-2 on arachidonic acid. This first step is set up to be fast, and generates a burst of PGH2 at ˜10 μM. The PGH2 is then further converted to PGD2 by the H-PGDS enzyme. […] Plates are then read on the RapidFire™ high throughput solid phase extraction system (Agilent) which incorporates a solid phase extraction step coupled to a triple quadrupole mass spectrometer (AB SCIEX). Relative levels of PGD2 and PGF2α, which acts as a surrogate for substrate, are measured and a percent conversion calculated.
Full length human H-PGDS cDNA (Invitrogen Ultimate ORF IOH13026) was amplified by PCR with the addition of a 5′ 6-His tag and TEV protease cleavage site. The PCR product was digested with Ndel and Xhol and ligated into pET22b+ (Merck Novagen®). Expression was carried out in E. coli strain BL21 (DE3*) using auto-induction Overnight Express™ Instant TB medium (Merck Novagen®) supplemented with 1% glycerol. The culture was first grown at 37° C. and the temperature was reduced to 25° C. when OD600 reached 2.0. Cells were harvested by centrifugation after a further 18 hr. 10 g of E. coli cell pellet was suspended to a total volume of 80 mL in lysis buffer (20 mM Tris-Cl pH 7.5, 300 mM NaCl, 20 mM imidazole, 5 mM β-mercaptoethanol, 10% glycerol). 1 mg/mL protease inhibitors (Protease Inhibitor Cocktail Set Ill, Merck Calbiochem®) and 1 mg/mL lysozyme were added to the cell suspension. The suspension was then sonicated for 5 min (UltraSonic Processor VCX 750, Cole-Parmer Instrument Co.) with a micro probe (50% amplitude, 10 sec on/off) and then centrifuged at 100,000 g for 90 min (at 4° C.). The supernatant was loaded onto a Ni-NTA HiTrap column (5 mL, GE Heathcare, pre-equilibrated in lysis buffer). The column was washed with 10 column volumes of lysis buffer and eluted with lysis buffer containing 500 mM imidazole. The pooled protein peak fractions were concentrated using a 10 kDa centrifugal filter at 3500 g and 4° C. (Amicon Ultra-15 centrifugal filter unit with Ultracel-10 membrane from Millipore). Further purification of the concentrated protein was carried out using gel filtration chromatography on a HiLoad 26/600 Superdex 75 preparative grade column (GE Healthcare Life Sciences) using 50 mM Tris pH 7.5, 50 mM NaCl, 1 mM dithiothreitol, 1 mM MgCl2. Fractions containing the protein were pooled, concentrated as described above, and stored at −80° C.
The full length human COX-2 gene (accession number L15326) was amplified by PCR to generate an EcoRI-HindIII fragment containing an in-frame FLAG tag. This was subcloned into pFastBac 1 (Invitrogen). The COX2 FLAG plasmid was recombined into the baculovirus genome according to the BAC-to-BAC protocol described by Invitrogen. Transfection into Spodoptera frugiperda (Sf9) insect cells was performed using Cellfectin (Invitrogen), according to the manufacturer's protocol. […] Recombinant virus was added at a Multiplicity of Infection (MOI) of 5 and the culture was allowed to continue for 3 days. Cells were harvested using a continuous feed centrifuge run at 2500 g at a rate of approximately 2 L/min with cooling. The resultant cell slurry was re-centrifuged in pots (2500 g, 20 min, 4° C.) and the cell paste was stored at −80° C. […] The suspension was sonicated in 500 mL batches for 8×5 seconds at 10 u amplitude with the medium tip of an MSE probe sonicator and subsequently incubated at 4° C. for 90 min with gentle stirring. The lysate was centrifuged at 12000 rpm for 45 min at 4° C. in a Sorvall SLA1500 rotor. The supernatant (1400 mL) was added to 420 mL of 20 mM Tris-Cl pH 7.4, 150 mM NaCl, 0.1 mM EDTA to reduce the concentration of n-octyl-β-D-glucopyranoside to 1% w/v.

[1] = H-PGDS RapidFire MS assay, mean pIC50, read-out: Potency Range (mean pIC50) (converted)
[2] = in at least one experimental run, read-out: H-PGDS pIC50 value (converted)

Compound | IC50 [1] [nM] | IC50 [2] [nM]
O=C(N[C@H]1CC[C@H](C2(O)CC2)CC1)c1cnc2cc(OC(F)F)ccc2c1 [Example 18, 7-(Difluoromethoxy)-N-(trans-4-(1-hydroxycyclopropyl)cyclohexyl)quinoline-3-carboxamide] | < 10 | 
CC(O)(CO[C@H]1CC[C@H](NC(=O)c2cnc3cc(OC(F)F)ccc3c2)CC1)C(F)(F)F (stereo partly drawn) [Example 19, 7-(Difluoromethoxy)-N-(trans-4-(3,3,3-trifluoro-2-hydroxy-2-methylpropoxy)cyclohexyl)quinoline-3-carboxamide] | 10 to 79.4 | 
NCCCOC[C@H]1CC[C@H](NC(=O)c2cnc3cc(OC(F)F)ccc3c2)CC1 [Example 23, N-(trans-4-((3-Aminopropoxy)methyl)cyclohexyl)-7-(difluoromethoxy)quinoline-3-carboxamide] | 10 to 79.4 | 
Cn1nnnc1N1CCC(NC(=O)c2cnc3cc(C4CC4)c(C#N)cc3c2)CC1 [Example 24, 6-Cyano-7-cyclopropyl-N-(1-(1-methyl-1H-tetrazol-5-yl)piperidin-4-yl)quinoline-3-carboxamide] | 10 to 79.4 | 
N#Cc1cc2cc(C(=O)N[C@H]3CCNC3=O)cnc2cc1C1CC1 [Example 25, (S)-6-Cyano-7-cyclopropyl-N-(2-oxopyrrolidin-3-yl)quinoline-3-carboxamide hydrochloride] | 10 to 79.4 | 25.1
N#Cc1cc2cc(C(=O)NC3CC(=O)Nc4ccccc43)cnc2cc1C1CC1 (centres unmarked) [Example 26, 6-Cyano-7-cyclopropyl-N-(2-oxo-1,2,3,4-tetrahydroquinolin-4-yl)quinoline-3-carboxamide] | < 10 | 
Cn1nnnc1N1CCC(NC(=O)c2cnc3cc(Br)c(Cl)cc3c2)CC1 [Example 27, 7-Bromo-6-chloro-N-(1-(1-methyl-1H-tetrazol-5-yl)piperidin-4-yl)quinoline-3-carboxamide] | 10 to 79.4 | 
COc1cccc2cc(C(=O)Nc3nccs3)cnc12 [Example 28, 8-Methoxy-N-(thiazol-2-yl)quinoline-3-carboxamide] | 10 to 79.4 | 
COc1cc2ncc(C(=O)NC3CCN(c4nnnn4C)CC3)cc2cc1C [Example 29, 7-Methoxy-6-methyl-N-(1-(1-methyl-1H-tetrazol-5-yl)piperidin-4-yl)quinoline-3-carboxamide] | 10 to 79.4 | 
COc1cc(F)c2cc(C(=O)NC3CCN(c4nnnn4C)CC3)cnc2c1 [Example 30, 5-Fluoro-7-methoxy-N-(1-(1-methyl-1H-tetrazol-5-yl)piperidin-4-yl)quinoline-3-carboxamide] | 10 to 79.4 | 
COc1c(Cl)ccc2cc(C(=O)NC3CCN(c4nnnn4C)CC3)cnc12 [Example 31, 7-Chloro-8-methoxy-N-(1-(1-methyl-1H-tetrazol-5-yl)piperidin-4-yl)quinoline-3-carboxamide] | 100 to 1000 | 
COc1cc2ncc(C(=O)NC3CCN(c4nnnn4C)CC3)cc2cc1Cl [Example 32, 6-Chloro-7-methoxy-N-(1-(1-methyl-1H-tetrazol-5-yl)piperidin-4-yl)quinoline-3-carboxamide] | 10 to 79.4 | 
COc1ccc2cc(C(=O)NC3CCN(c4nnnn4C)CC3)cnc2c1OC [Example 33, 7,8-Dimethoxy-N-(1-(1-methyl-1H-tetrazol-5-yl)piperidin-4-yl)quinoline-3-carboxamide] | 10 to 79.4 | 
Cn1nnnc1N1CCC(NC(=O)c2cnc3cc(C4CC4)c(Cl)cc3c2)CC1 [Example 34, 6-Chloro-7-cyclopropyl-N-(1-(1-methyl-1H-tetrazol-5-yl)piperidin-4-yl)quinoline-3-carboxamide] | < 10 | 
O=C(N[C@H]1CCNC1=O)c1cnc2cc(C3CC3)c(Cl)cc2c1 [Example 35, (S)-6-Chloro-7-cyclopropyl-N-(2-oxopyrrolidin-3-yl)quinoline-3-carboxamide hydrochloride] | < 10 | 
O=C(N[C@H]1CCCNC1=O)c1cnc2cc(C3CC3)c(Cl)cc2c1 [Example 36, (S)-6-Chloro-7-cyclopropyl-N-(2-oxopiperidin-3-yl)quinoline-3-carboxamide hydrochloride] | 10 to 79.4 | 15.8
O=C1CC(NC(=O)c2cnc3cc(C4CC4)c(Cl)cc3c2)c2ccccc2N1 (centres unmarked) [Example 37, 6-Chloro-7-cyclopropyl-N-(2-oxo-1,2,3,4-tetrahydroquinolin-4-yl)quinoline-3-carboxamide] | < 10 | 
O=C(N[C@H]1CONC1=O)c1cnc2cc(C3CC3)c(Cl)cc2c1 [Example 38, (S)-6-Chloro-7-cyclopropyl-N-(3-oxoisoxazolidin-4-yl)quinoline-3-carboxamide] | < 10 | 
CC(C)(O)[C@H]1CC[C@H](NC(=O)c2cnc3cc(C4CC4)c(Cl)cc3c2)CC1 [Example 39] | < 10 | 
C[C@]1(O)C[C@@H](NC(=O)c2cnc3cc(C4CC4)c(Cl)cc3c2)C1 [Example 40, 6-Chloro-7-cyclopropyl-N-((1s,3s)-3-hydroxy-3-methylcyclobutyl)quinoline-3-carboxamide] | 10 to 79.4 | 
O=C(N[C@H]1CCNC1=O)c1cnc2cc(C3CC3)c(F)cc2c1 [Example 41, (S)-7-cyclopropyl-6-fluoro-N-(2-oxopyrrolidin-3-yl)quinoline-3-carboxamide hydrochloride] | 10 to 79.4 | 
CC(C)(O)[C@H]1CC[C@H](NC(=O)c2cnc3cc(C4CC4)c(F)cc3c2)CC1 [Example 42, 7-Cyclopropyl-6-fluoro-N-(trans-4-(2-hydroxypropan-2-yl)cyclohexyl)quinoline-3-carboxamide] | < 10 | 
O=C(N[C@H]1CC[C@H](NCC(F)F)CC1)c1cnc2cc(C3CC3)c(F)cc2c1 [Example 43, 7-Cyclopropyl-N-(trans-4-((2,2-difluoroethyl)amino)cyclohexyl)-6-fluoroquinoline-3-carboxamide] | < 10 | 
Cn1nnnc1N1CCC(NC(=O)c2cnc3cc(C4CC4)ccc3c2)CC1 [Example 44, 7-Cyclopropyl-N-(1-(1-methyl-1H-tetrazol-5-yl)piperidin-4-yl)quinoline-3-carboxamide] | < 10 | 
O=C(N[C@H]1CCNC1=O)c1cnc2cc(C3CC3)ccc2c1 [Example 45, (S)-7-Cyclopropyl-N-(2-oxopyrrolidin-3-yl)quinoline-3-carboxamide hydrochloride] | 10 to 79.4 | 
COc1cc2ncc(C(=O)NC3CCN(c4nnnn4C)CC3)cc2cc1F [Example 46, 6-Fluoro-7-methoxy-N-(1-(1-methyl-1H-tetrazol-5-yl)piperidin-4-yl)quinoline-3-carboxamide] | 100 to 1000 | 126
COc1ccc2cc(C(=O)Nc3nccs3)cnc2c1F [Example 47, 8-Fluoro-7-methoxy-N-(thiazol-2-yl)quinoline-3-carboxamide hydrochloride] | 10 to 79.4 | 
O=C(N[C@H]1CC[C@H](NCC(F)F)CC1)c1cnc2cc(OC(F)F)c(F)cc2c1 [Example 49, N-(trans-4-((2,2-Difluoroethyl)amino)cyclohexyl)-7-(difluoromethoxy)-6-fluoroquinoline-3-carboxamide] | 10 to 79.4 | 
CC(C)CN1CC[C@H](NC(=O)c2cnc3cc(OC(F)F)c(F)cc3c2)C1=O [Example 50, (S)-7-(Difluoromethoxy)-6-fluoro-N-(1-isobutyl-2-oxopyrrolidin-3-yl)quinoline-3-carboxamide] | 10 to 79.4 | 
